Test results as given in patent US20240041851A1 (priority 2020, published 2024).
Where two headings read alike, the source gives them in different places.

Legend:
[1] = test system: SARS-CoV-2 infected Vero E6 TMPRSS2+ cells; assay: Live cell number (cytopathic effect) quantification assay, Viral Tox-Glo; assay type: cell-based, African Green Monkey; settings: for rescue of CPE in MTX-treated cells: thymidine or 1 mM formate added to 1 μM MTX, 48 hours
RNA flavivirus Zika = settings: cited from earlier work
SARS-CoV-2 [2] = assay type: cell-based; settings: for rescue of virion production in MTX-treated cells: thymidine or 1 mM formate added to 1 μM MTX, 48 hours
SARS-CoV-2 [3] = assay: Simultaneous Stellaris FISH and immunofluorescence: viral +strand gRNA and nucleocapsid protein (Np); assay type: cell-based; settings: for restoration of viral gRNA levels in MTX-treated cells: 10011M thymidine or 1 mM formate added to 1 μM MTX; for restoration of viral gRNA levels in MTX-treated cells / rescue of translation of viral Np in MTX-treated cells: 48 hours; for rescue of translation of viral Np in MTX-treated cells: thymidine or 1 mM formate added to 1 μM MTX

## CN(Cc1cnc2nc(N)nc(N)c2n1)c1ccc(C(=O)N[C@@H](CCC(=O)O)C(=O)O)cc1 [methotrexate]
[1]
  virus-induced CPE: significantly blocked virus-induced CPE
RNA flavivirus Zika
  replication of the RNA flavivirus Zika: impair replication
SARS-CoV-2 [2]
  diminished secretion of infectious virion: ~2 log
SARS-CoV-2 [3]
  Np levels: reduced
  viral gRNA levels: reduced

## Cc1n[nH]c2c1C(c1cc(CO)cc(-c3ccccc3)c1)(C(C)C)C(C#N)=C(N)O2 (centres unmarked) [SHIN1]
[1]
  viral CPE: induced resistance to viral CPE
SARS-CoV-2 [2]
  reduction of infectious virus titer: ~1 log
SARS-CoV-2 [3]
  +strand gRNA levels: diminished
  nucleoprotein levels: diminished

## O=C(COc1ccc(Cl)cc1)NC1CCC(NC(=O)COc2ccc(Cl)cc2)CC1 (centres unmarked) [ISRIB]
[1]
  number of live cells: increased the number of live cells
SARS-CoV-2 [3]
  Np expression: did not appreciably diminish
  viral gRNA expression: did not appreciably diminish

## O=c1[nH]cnc2nc[nH]c12 [hypoxanthine]
SARS-CoV-2 [2]
  reversal of all effects of MTX (CPE, gRNA, Np, infectious virion): could be reversed

## C/C=C(\C)[C@H](O)[C@H](C)/C=C(C)/C=C/C/C(C)=C/Cc1nc(OC)c(OC)c(O)c1C [Piericidin A]
[1]
  viral CPE: reduced viral CPE
SARS-CoV-2 [2]
  secreted virus levels: did not have a major impact
SARS-CoV-2 [2]; listed as PierA
  secreted virus levels: did not reduce viral replication
SARS-CoV-2 [3]
  Np levels: did not have a major impact
  viral gRNA levels: did not have a major impact

## Cc1cn([C@H]2C[C@H](O)[C@@H](CO)O2)c(=O)[nH]c1=O [thymidine]
[1]
  rescue of CPE in MTX-treated cells: unable to rescue
SARS-CoV-2 [2]
  rescue of virion production in MTX-treated cells: unable to rescue
SARS-CoV-2 [3]
  restoration of viral gRNA levels in MTX-treated cells: could only partially restore
  rescue of translation of viral Np in MTX-treated cells: unable to rescue

## CCCCS(=N)(=O)CCC(N)C(=O)O [BSO, L-buthionine-sulfoximine]
SARS-CoV-2 [3]
  Np levels: did not have any apparent effect
  viral gRNA levels: did not have any apparent effect

## O=C[O-].[Na+] [formate, sodium formate]
[1]
  rescue of CPE in MTX-treated cells: unable to rescue
SARS-CoV-2 [2]; 1 mM formate added to 10 μM SHIN1, 48 hours
  reversal of SHIN1 effects (virus titer, gRNA, nucleoprotein, CPE): fully reversed
SARS-CoV-2 [2]
  rescue of virion production in MTX-treated cells: unable to rescue
SARS-CoV-2 [3]
  restoration of viral gRNA levels in MTX-treated cells: could only partially restore
  rescue of translation of viral Np in MTX-treated cells: unable to rescue
